Like-named read-outs stand apart in the source and are kept apart here.
Legend:
[1] = system: SF162 pseudovirus (clade B); experiment: HIV-1 neutralization assay (Env-pseudotyped virus, Luc reporter); type: cell-based
[2] = system: SS1196.1 pseudovirus (clade B); experiment: as above; type: cell-based
[3] = system: Q769.h5 pseudovirus (clade A); experiment: as above; type: cell-based
[4] = system: Du156 pseudovirus (clade C); experiment: as above; type: cell-based
[5] = target: recombinant hemagglutinin (HA) (A/New Caledonia/20/99); experiment: SPR analysis of captured CR6261; type: binding, influenza H1N1; details: HA as analyte, bivalent analyte kinetics fit, read-out: equilibrium dissociation constant, KD
[6] = system: Q769.h5 pseudovirus (clade A); details: reported by Wu et al. (16); cited from earlier work
[7] = system: SF162 pseudovirus (clade B); details: reported by Wu et al. (16); cited from earlier work
[8] = system: Du156 pseudovirus (clade C); details: reported by Wu et al. (16); cited from earlier work
FcγRI = FcγRI (Homo sapiens, UniProt P12314); experiment: FcγRI binding in ELISA and in flow cytometry; details: data not shown
HIV-1 BaL = details: topical gel formulation; CCR5-using HIV-1 BaL; Veselinovic, et al.; cited from earlier work
[9] = TZM-b1 cells, TFV concentration in combination, mean ± SEM, read-out: IC50 in a respective combination with VRC01p
[10] = TZM-b1 cells, TFV, mean ± SEM, read-out: IC50 when used individually
[11] = read-out: IC50 in a respective combination with VRC01p, TZM-b1 cells, GRFT, MVC concentration in combination, mean ± SEM
[12] = read-out: IC50 when used individually, TZM-b1 cells, GRFT, MVC, mean ± SEM
[13] = TZM-b1 cells, GRFT, MVC concentration in combination, mean ± SEM, read-out: IC50 in a respective combination with VRC01p
[14] = TZM-b1 cells, GRFT, MVC, mean ± SEM, read-out: IC50 when used individually

Sequence of FcγRI (P12314 16-374, species assumed): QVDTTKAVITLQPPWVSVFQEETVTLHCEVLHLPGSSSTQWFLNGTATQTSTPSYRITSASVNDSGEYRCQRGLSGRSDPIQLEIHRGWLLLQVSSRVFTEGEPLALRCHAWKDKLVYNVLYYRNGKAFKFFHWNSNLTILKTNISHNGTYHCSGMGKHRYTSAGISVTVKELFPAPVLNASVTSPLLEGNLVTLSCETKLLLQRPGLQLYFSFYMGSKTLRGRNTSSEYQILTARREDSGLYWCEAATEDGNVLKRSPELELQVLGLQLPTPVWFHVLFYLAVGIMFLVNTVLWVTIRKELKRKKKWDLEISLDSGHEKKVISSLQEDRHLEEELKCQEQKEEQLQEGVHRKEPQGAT

In the case of `C[C@H](Cn1cnc2c(N)ncnc21)OCP(=O)(O)O` [TFV, tenofovir], the IC50 [1, 9] is reported as 880 ± 400 nM, the IC50 [1, 10] is reported as 2700 ± 1020 nM and the “dose reduction index (DRI) in a respective combination with VRC01p” value (shortened to “dose reduction index (DRI)”) ([1]; mean ± SEM) is reported as 2.10 ± 0.34. For the same compound, the IC50 [2, 9] was 1920 ± 340 nM, the IC50 [2, 10] was 7650 ± 2390 nM and the “dose reduction index (DRI)” value ([2]; mean ± SEM) was 3.76 ± 0.68. The IC50 [3, 9] was 2090 ± 390 nM, the IC50 [3, 10] was 21200 ± 3530 nM and the “dose reduction index (DRI)” value ([3]; mean ± SEM) was 8.40 ± 1.41. The IC50 [4, 9] was 60 nM, the IC50 [4, 10] was 7140 ± 1910 nM and the “dose reduction index (DRI)” value ([4]; mean ± SEM) was 3.01 ± 0.65.
Compound “CR6261: anti-influenza bnMAb CR6261 IgG1 (PDB ID: 3GBM) expressed in N. benthamiana” has a Kd [5] of 0.055 ± 0.0036 nM.
In the case of maraviroc [MVC], the “dose reduction index (DRI)” value ([1]; mean ± SEM) is reported as 4.21 ± 0.25, the IC50 [1, 11] is reported as 18.3 ± 7.9 nM and the IC50 [1, 12] is reported as 54.9 ± 29.3 nM. For the same compound, the “dose reduction index (DRI)” value ([2]; mean ± SEM) was 5.06 ± 0.39, the IC50 [2, 11] was 15.6 ± 8.87 nM and the IC50 [2, 12] was 96.4 ± 28.5 nM. For the same compound, the “dose reduction index (DRI)” value ([3]; mean ± SEM) was 4.40 ± 0.71, the IC50 [3, 11] was 5.27 ± 1.12 nM and the IC50 [3, 12] was 29.6 ± 7.75 nM. The “dose reduction index (DRI)” value ([4]; mean ± SEM) was 5.93 ± 0.96, the IC50 [4, 11] was 32.2 ± 11.5 nM and the IC50 [4, 12] was 199 ± 40.4 nM.
In the case of “VRC01HEK: HEK293F cell-produced bnMAb VRC01”, the “VRC01HEK IC50” value [6] is given as 0.084 µg/mL, the “VRC01HEK IC50” value [7] is given as 0.139 µg/mL and the “VRC01HEK IC50” value [8] is given as 0.089 µg/mL.
With “VRC01p: Nicotiana plant-expressed anti-HIV-1 bnMAb VRC01 IgG1 from the L-(KP6pp)-H construct” the “binding to FcγRI compared with a human IgG1 isotype control” value (FcγRI) was “nearly an order of magnitude less”.
In the case of “VRC01: CD4-binding site (CD4bs)-specific bnMAb isolated from a slowly progressing HIV-1 infected donor”, the “protection against vaginal challenge” value (HIV-1 BaL) is given as “protected”.
With griffithsin [GRFT] the IC50 [1, 13] was 0.1 ± 0.03 nM, the IC50 [1, 14] was 0.59 ± 0.34 nM and the “dose reduction index (DRI)” value ([1]; mean ± SEM) was 3.19 ± 1.16. For the same compound, the IC50 [2, 13] was 0.01 ± 0.001 nM, the IC50 [2, 14] was 0.04 ± 0.01 nM and the “dose reduction index (DRI)” value ([2]; mean ± SEM) was 2.98 ± 0.72. The IC50 [3, 13] was 0.79 ± 0.19 nM, the IC50 [3, 14] was 12.4 ± 2.88 nM and the “dose reduction index (DRI)” value ([3]; mean ± SEM) was 11.3 ± 2.95. For the same compound, the IC50 [4, 13] was 0.003 ± 0.0004 nM, the IC50 [4, 14] was 0.02 ± 0.001 nM and the “dose reduction index (DRI)” value ([4]; mean ± SEM) was 6.29 ± 0.66.

Reference: patent publication US10066238B2, “Methods for producing antibodies” (priority 2013, dated 2018)
